From patent US8815891B2, “Tricyclic derivative or pharmaceutically acceptable salts thereof, preparation method thereof, and pharmaceutical composition containing the same” (Je Il Pharmaceutical Co., Ltd., priority 2008, dated 2014)
Structures can show the parent of a compound that is named as a salt. Where two headings read alike, the source gives them in different places.

Legend:
PARP-1 enzyme [1] = biological target: PARP-1 enzyme (Cricetulus griseus (Chinese hamster) (Cricetulus barabensis griseus), UniProt Q9R152); assay: Intracellular PARP inhibitory activity (NAD(P)H released by MMS-treated CHO-K1 cells); assay type: cell-based
Experimental: In order to verify the ability of the compounds of the present invention to inhibit the PARP-1 enzyme activity, the amount of NAD(P)H accumulated on cell culture medium was measured.
The Chinese hamster ovary cells (CHO-K1) were cultured in RPMI1640 culture medium containing 10% fetal bovine serum (FBS). The cultured CHO-K1 cells were seeded into 96 well plate by 2.9×10^3 cells/well, and cultured for 16 hours under culture condition of 37° C., 5% CO2. After the culture, the cells were treated with the compounds of the Examples at varying concentrations, and cultured at 37° C. for 2 hours. […] The amount of […] released to the culture medium 3, 4, 5 hours after the treatment with MMS was quantified at 450 nm using Wallac EnVision™ (PerkinElmer Oy, Turku, Finland). The transference numbers of the compounds at varying concentrations according to the present invention are the average values obtained from four wells, and the results were calculated using regression analysis.
The Chinese hamster ovary cells (CHO-K1) were treated with the compounds at varying concentration according to the present invention, and the amount of NAD(P)H released into the culture medium 4 hours after the MMS treatment was quantified.

PARP-1 enzyme [2] = biological target: PARP-1 enzyme (Homo sapiens (Human), UniProt P09874); assay: Poly(ADP-ribose)polymerase [PARP-1] enzyme inhibitory activity (Trevigen PARP Assay kit); assay type: biochemical; conditions: read-out: PARP-1 Inhibitory activity IC50
Experimental: The activity of the compounds according to the present invention to inhibit the PARP-1 enzyme was examined using a PARP Assay kit (4671-096-K) purchased from Trevigen. The assay was performed following a modified previously reported method by Lee et al [Methods Find, Exp. Clin. Pharmacol., 27, 617-622, 2005].
Histone was coated on 384-well plate, which is a small volume PS plate (784101) of Greiner Bio-One, and left at 25° C. for 2 hours. After that, the plate was rinsed four times with PBS (7.5 mM Na2HPO4, 2.5 mM NaH2PO4, 145 mM NaCl, pH 7.4), and in order to prevent non-specific reaction, the Strep-diluent (provided from kit of Trevigen) was added and left at 25° C. for one hour. After one hour, the plate was again rinsed with PBS four times, and the compounds of the Examples in various concentrations were put into reactant containing PARP-1 enzyme (0.12 unit/well), 2×PARP cocktail (1.95 mM NAD^+, 50 uM biotinylated NAD^+, and activated DNA in 50 mM Tris pH 8.0, 25 mM MgCl2) and allowed to react at 25° C. for 30 minutes. After 30 minutes, each well was rinsed with PBS four times, and in order to measure the amount of rybosylation by the PARP enzyme, strepavidin-linked peroxidase (Strep-HRP, 1:1000 diluted) was added and allowed to react at 37° C. for 30 minutes. The plate was rinsed with PBS four times, and TACS-Sapphire substrate was put and allowed to react at 25° C. for 10 minutes so that color reaction occurred. Finally, the reaction was terminated by the addition of 0.2 N HCl. The amount of histone ribosylation formed by PARP-1 enzyme was quantified at 450 nm using Wallac EnVision™ (PerkinElmer Oy, Turku, Finland).

[3] = PARP-1 enzyme, histone ribosylation, 450 nm

Sequence of PARP-1 enzyme (Cricetulus griseus (Chinese hamster) (Cricetulus barabensis griseus), UniProt Q9R152) (Q9R152 whole entry): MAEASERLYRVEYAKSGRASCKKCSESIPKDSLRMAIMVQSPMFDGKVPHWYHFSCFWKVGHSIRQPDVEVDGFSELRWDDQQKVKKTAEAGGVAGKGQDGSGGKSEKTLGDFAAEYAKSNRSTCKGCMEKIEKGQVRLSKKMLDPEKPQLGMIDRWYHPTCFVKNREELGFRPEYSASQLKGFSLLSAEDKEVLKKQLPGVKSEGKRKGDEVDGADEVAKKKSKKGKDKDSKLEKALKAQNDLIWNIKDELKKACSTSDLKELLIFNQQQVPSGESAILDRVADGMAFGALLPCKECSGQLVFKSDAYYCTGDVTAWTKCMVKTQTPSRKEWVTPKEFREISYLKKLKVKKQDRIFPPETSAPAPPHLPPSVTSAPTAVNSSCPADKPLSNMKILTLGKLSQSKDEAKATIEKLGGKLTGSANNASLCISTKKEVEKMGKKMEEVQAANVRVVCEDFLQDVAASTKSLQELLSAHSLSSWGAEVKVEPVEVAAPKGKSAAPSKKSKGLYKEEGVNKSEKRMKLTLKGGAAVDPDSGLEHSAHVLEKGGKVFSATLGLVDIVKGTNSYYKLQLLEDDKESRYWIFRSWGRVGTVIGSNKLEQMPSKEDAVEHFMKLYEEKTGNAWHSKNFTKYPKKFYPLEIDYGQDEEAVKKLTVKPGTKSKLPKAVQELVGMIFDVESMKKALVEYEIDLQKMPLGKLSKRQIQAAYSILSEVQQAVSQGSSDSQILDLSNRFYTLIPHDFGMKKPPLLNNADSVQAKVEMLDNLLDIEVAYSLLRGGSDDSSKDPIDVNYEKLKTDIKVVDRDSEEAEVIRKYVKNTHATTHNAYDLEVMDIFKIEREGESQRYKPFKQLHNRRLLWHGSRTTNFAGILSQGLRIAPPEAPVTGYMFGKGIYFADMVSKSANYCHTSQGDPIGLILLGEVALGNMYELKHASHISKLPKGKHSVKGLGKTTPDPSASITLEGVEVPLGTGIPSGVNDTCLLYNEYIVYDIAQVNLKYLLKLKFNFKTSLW
Sequence of PARP-1 enzyme (Homo sapiens (Human), UniProt P09874) (P09874 whole entry): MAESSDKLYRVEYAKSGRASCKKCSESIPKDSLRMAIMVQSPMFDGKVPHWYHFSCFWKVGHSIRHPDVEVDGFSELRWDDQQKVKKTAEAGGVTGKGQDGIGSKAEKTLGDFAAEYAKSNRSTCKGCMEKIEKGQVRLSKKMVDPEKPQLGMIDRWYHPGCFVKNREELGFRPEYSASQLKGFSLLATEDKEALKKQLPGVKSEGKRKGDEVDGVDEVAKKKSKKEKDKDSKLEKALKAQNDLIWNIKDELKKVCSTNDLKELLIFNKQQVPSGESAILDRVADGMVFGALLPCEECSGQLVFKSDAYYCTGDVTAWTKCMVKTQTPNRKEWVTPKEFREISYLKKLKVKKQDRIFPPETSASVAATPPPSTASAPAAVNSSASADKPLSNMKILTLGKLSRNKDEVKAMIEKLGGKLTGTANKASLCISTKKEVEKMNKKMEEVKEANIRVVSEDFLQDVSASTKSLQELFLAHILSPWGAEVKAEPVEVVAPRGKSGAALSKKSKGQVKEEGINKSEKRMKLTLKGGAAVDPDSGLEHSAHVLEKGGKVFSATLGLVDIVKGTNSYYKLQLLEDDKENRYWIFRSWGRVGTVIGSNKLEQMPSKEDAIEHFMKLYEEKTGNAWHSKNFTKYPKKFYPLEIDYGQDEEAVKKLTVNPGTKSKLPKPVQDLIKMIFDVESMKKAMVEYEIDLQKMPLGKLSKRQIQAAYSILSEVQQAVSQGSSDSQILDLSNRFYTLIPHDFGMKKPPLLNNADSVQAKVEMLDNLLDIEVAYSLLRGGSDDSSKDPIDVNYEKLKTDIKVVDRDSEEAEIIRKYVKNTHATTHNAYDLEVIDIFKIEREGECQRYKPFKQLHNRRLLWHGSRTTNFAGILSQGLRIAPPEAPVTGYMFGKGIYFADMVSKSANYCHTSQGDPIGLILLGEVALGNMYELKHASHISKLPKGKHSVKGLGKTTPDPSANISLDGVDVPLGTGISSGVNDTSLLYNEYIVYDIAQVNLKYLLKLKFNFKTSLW

Row | Compound | IC50 (PARP-1 enzyme [2]; [3]) [µM] | IC50 (PARP-1 enzyme [2]) [µM] | also measured
1 | CCOc1cc(CN)cc2[nH]c(=O)c3c(c12)NCCC3 [Example 113, 8-(Aminomethyl)-10-etoxy-1,2,3,4-tetrahydrobenzo[h][1,6]naphthyridine-5 (6H)-one dihydrochloride] | 0.1 |  | IC50 (PARP-1 enzyme [1]): 1.43 µM
2 | CCOc1cc(CN(C)C)cc2[nH]c(=O)c3c(c12)NCCC3 [Example 100, 8-[(Dimethylamino)methyl]-10-etoxy-1,2,3,4-tetrahydrobenzo[h][1,6]naphthyridine-5(6H)-one dihydrochloride] |  |  | IC50 (PARP-1 enzyme [1]): 0.06 µM
3 | CNCc1cc(OC)c2c3c(c(=O)[nH]c2c1)CCCN3 [Example 73, 10-Methoxy-8-[(methylamino)methyl]-1,2,3,4-tetrahydrobenzo[h][1,6]naphthyridine-5(6H)-one dihydrochloride] |  | 0.1 | IC50 (PARP-1 enzyme [1]): 1.39 µM
4 | O=c1[nH]c2cc(CN3CCCC3)ccc2c2c1CCCN2 [Example 44, 8-(Pyrrolidine-1-ylmethyl)-1,2,3,4-tetrahydrobenzo[h][1,6]naphthyridine-5(6H)-one dihydrochloride] |  |  | IC50 (PARP-1 enzyme [1]): 0.34 µM; IC50 (PARP-1 enzyme [2]; dihydrochloride): 0.06 µM
5 | CN(C)Cc1ccc2c3c(c(=O)[nH]c2c1)CCCN3C [Example 66, 8-[(Dimethylamino)methyl]-1-methyl-1,2,3,4-tetrahydrobenzo[h][1,6]naphthyridine-5(6H)-one dihydrochloride] | < 1 | 0.09 | IC50 (PARP-1 enzyme [1]): 0.32 µM
6 | COc1cc(CN2CCC(N3CCOCC3)CC2)cc2[nH]c(=O)c3c(c12)NCCC3 [Example 108, 10-Methoxy-8-[(4-morpholinopiperidine-1-yl)methyl]-1,2,3,4-tetrahydrobenzo[h][1,6]naphthyridine-5(6H)-one trihydrochloride] |  | 0.14 | IC50 (PARP-1 enzyme [1]): 0.11 µM
7 | CCCOc1cc(CN)cc2[nH]c(=O)c3c(c12)NCCC3 [Example 114, 8-(Aminomethyl)-10-propoxy-1,2,3,4-tetrahydrobenzo[h][1,6]naphthyridine-5(6H)-one dihydrochloride] |  | 0.19 | IC50 (PARP-1 enzyme [1]): 1.92 µM
8 | CCN(C)Cc1ccc2c3c(c(=O)[nH]c2c1)CCCN3 [Example 47, 8-{[Ethyl(methyl)amino]methyl}-1,2,3,4-tetrahydrobenzo[h][1,6]naphthyridine-5(6H)-one dihydrochloride] |  | 0.07 | IC50 (PARP-1 enzyme [1]): 0.25 µM
9 | O=c1[nH]c2cc(Cn3ccnc3)ccc2c2c1CCCN2 [Example 64, 8-[(1H-Imidazole-1-yl)methyl]-1,2,3,4-tetrahydrobenzo[h][1,6]naphthyridine-5(6H)-one hydrochloride] | 0.54 |  | 
10 | CN(CCC(=O)O)Cc1ccc2c3c(c(=O)[nH]c2c1)CCCN3 [Example 58, 3-{Methyl[(5-oxo-1,2,3,4,5,6-hexahydrobenzo[h][1,6]naphthyridine-8-yl)methyl]amino}propanoic acid dihydrochloride] |  | 0.92 | 
11 | CN1CCN(Cc2ccc3c4c(c(=O)[nH]c3c2)CCCN4)CC1 [Example 55, 8-[(4-Methylpiperazine-1-yl)methyl]-1,2,3,4-tetrahydrobenzo[h][1,6]naphthyridine-5(6H)-one trihydrochloride] |  | 1.72 | 
12 | CN(C)CCCc1ccc2[nH]c(=O)c3c(c2c1)NCCC3 [Example 33, 9-[3-(Dimethylamino)propyl]-1,2,3,4-tetrahydrobenzo[h][1,6]naphthyridine-5(6H)-one dihydrochloride] | < 1 | 0.93 | 
13 | O=c1[nH]c2ccc(OCCCN3CCCCC3)cc2c2c1CCCN2 [Example 21, 9-[3-(Piperidine-1yl)propoxy]-1,2,3,4-tetrahydrobenzo[h][1,6]naphthyridine-5(6H)-one dihydrochloride] | > 4 |  | 
14 | CCCN1CCCc2c1c1cc(OC)ccc1[nH]c2=O [Example 6, 9-Methoxy-1-propyl-1,2,3,4-tetrahydrobenzo[h][1,6]naphthyridine-5(6H)-one hydrochloride] | > 4 |  | 
15 | O=c1[nH]c2ccc(OCCc3ccccc3)cc2c2c1CCCN2 [Example 25, 9-Penethoxy-1,2,3,4-tetrahydrobenzo[h][1,6]naphthyridine-5(6H)-one dihydrochloride] | > 4 |  | 
16 | COc1cc(CN2CCCC2)cc2[nH]c(=O)c3c(c12)NCCC3 [Example 77, 10-Methoxy-8-(pyrrolidine-1-ylmethyl)-1,2,3,4-tetrahydrobenzo[h][1,6]naphthyridine-5(6H)-one dihydrochloride] |  | 0.05 | 
17 | COc1cc(CNC2CCCC2)cc2[nH]c(=O)c3c(c12)NCCC3 [Example 89, 8-[(Cyclopentylamino)methyl]-10-methoxy-1,2,3,4-tetrahydrobenzo[h][1,6]naphthyridine-5(6H)-one dihydrochloride] |  | 0.27 | 
18 | O=c1[nH]c2cc(CN3CCOCC3)ccc2c2c1CCCN2 [Example 49, 8-(Morpholinomethyl)-1,2,3,4-tetrahydrobenzo[h][1,6]naphthyridine-5(6H)-one dihydrochloride] |  | 0.62 | 
19 | CCCN1CCC(Oc2ccc3[nH]c(=O)c4c(c3c2)NCCC4)CC1 [Example 11, 9-(1-Propylpiperidine-4-yloxy)-1,2,3,4-tetrahydrobenzo[h][1,6]naphthyridine-5(6H)-one dihydrochloride] |  | 1.03 | 
20 | O=c1[nH]c2cc(Cn3cccc3)ccc2c2c1CCCN2 [Example 65, 8-[(1H-Pyrrole-1-yl)methyl]-1,2,3,4-tetrahydrobenzo[h][1,6]naphthyridine-5(6H)-one hydrochloride] | 1.54 |  | 
21 | CN(Cc1ccccc1)Cc1ccc2c3c(c(=O)[nH]c2c1)CCCN3 [Example 51, 8-{[Benzyl(methyl)amino]methyl}-1,2,3,4-tetrahydrobenzo[h][1,6]naphthyridine-5(6H)-one dihydrochloride] |  | 0.93 | 
22 | COc1cc(CN(C)N2CCOCC2)cc2[nH]c(=O)c3c(c12)NCCC3 [Example 97, 10-Methoxy-8-{[methyl(morpholino)amino]methyl}-1,2,3,4-tetrahydrobenzo[h][1,6]naphthyridine-5(6H)-one trihydrochloride] |  | 0.9 | 
23 | COc1cc(CNC(C)C)cc2[nH]c(=O)c3c(c12)NCCC3 [Example 88, 8-[(Isopropylamino)methyl]-10-methoxy-1,2,3,4-tetrahydrobenzo[h][1,6]naphthyridine-5 (6H)-one dihydrochloride] |  | 0.11 | 
24 | CN1CCCc2c1c1cc(O)ccc1[nH]c2=O [Example 10, 1-Methyl-9-hydroxy-1,2,3,4-tetrahydrobenzo[h][1,6]naphthyridine-5(6H)-one hydrochloride] | > 4 |  | 
25 | COc1cc(CN(C)C2CCCC2)cc2[nH]c(=O)c3c(c12)NCCC3 [Example 92, 8-{[Cyclopentyl(methyl)amino]methyl}-10-methoxy-1,2,3,4-tetrahydrobenzo[h][1,6]naphthyridine-5(6H)-one dihydrochloride] |  | 0.19 | 
26 | CCN(C)Cc1cc(OC)c2c3c(c(=O)[nH]c2c1)CCCN3 [Example 76, 8-{[Ethyl(methyl)amino]methyl}-10-methoxy-1,2,3,4-tetrahydrobenzo[h][1,6]naphthyridine-5(6H)-one] | 0.05 |  | 
27 | CN1CCC(Oc2ccc3[nH]c(=O)c4c(c3c2)NCCC4)CC1 [Example 12, 9-(1-Methylpiperidine-4-yloxy)-1,2,3,4-tetrahydrobenzo[h][1,6]naphthyridine-5(6H)-one dihydrochloride] |  | 1.07 | 
